Measurements taken from patent publication US20260274895A1, “DE NOVO DESIGNED MEMBRANE-TRAVERSING AND ORALLY BIOAVAILABLE MACROCYCLES” (UNIVERSITY OF WASHINGTON, priority 2022, published 2026).
Where a SMILES comes first, the peptide text is derived from it. [ ]: non-standard residue; d: D form. NMeF = CN[C@@H](Cc1ccccc1)C(=O)O; NMeL = CN[C@@H](CC(C)C)C(=O)O; dNMeL = CN[C@H](CC(C)C)C(=O)O; NMeV = CN[C@H](C(=O)O)C(C)C; NMeA = CN[C@@H](C)C(=O)O; Nle = CCCC[C@H](N)C(=O)O; dNMeA = CN[C@H](C)C(=O)O; Aib = CC(C)(N)C(=O)O; Sar = CNCC(=O)O

Settings: for PAMPA_Papp_Avg (apparent permeability): PAMPA

Row | SMILES | PAMPA_Papp_Avg (apparent permeability) [×10⁻⁶ cm/s] | membrane permeability in PAMPA (in words)
1 | CC(C)C[C@@H]1C(=O)N(C)[C@H](CC(C)C)C(=O)N2CCC[C@H]2C(=O)N[C@H](CC(C)C)C(=O)N2CCC[C@@H]2C(=O)N2CCC[C@@H]2C(=O)N(C)[C@H](CC(C)C)C(=O)N[C@H](Cc2ccccc2)C(=O)N[C@@H](C)C(=O)N1C [Design D9.18, A*l*lPlpp*lf] (cyclo(A[dNMeL][dNMeL]P[dL][dP][dP][dNMeL][dF])) | 1.76 | 
2 | CC[C@H](C)[C@@H]1NC(=O)[C@@H](CC(C)C)N(C)C(=O)[C@@H]2CCCN2C(=O)[C@H](C(C)C)NC(=O)C(C)(C)NC(=O)[C@H](CC(C)C)NC(=O)C(C)(C)NC(=O)[C@@H]2CCCN2C(=O)[C@H]2CCCN2C1=O [Design D9.1, pPBLBVP*lI] (cyclo([Aib]L[Aib]VP[dNMeL]I[dP]P)) | 1.59 | 
3 | CC(C)C[C@@H]1NC(=O)[C@H](Cc2ccccc2)N(C)C(=O)[C@H]2CCCN2C(=O)[C@@H](CC(C)C)NC(=O)[C@@H](CC(C)C)NC(=O)[C@H](C)NC(=O)[C@H]2CCCN2C(=O)[C@@H]2CCCN2C(=O)[C@@H](C(C)C)NC1=O [Design D9.32, pAllp*FLvP] (cyclo(A[dL][dL][dP][NMeF]L[dV]P[dP])) | 0.24 | 
4 | CC[C@@H](C)[C@H]1NC(=O)[C@@H](CC(C)C)NC(=O)[C@@H]2CCCN2C(=O)[C@H]2CCCN2C(=O)[C@@H](C(C)C)NC(=O)[C@H](C)NC(=O)[C@@H]2CCCN2C(=O)[C@@H]([C@H](C)CC)NC(=O)[C@@H](C)N(C)C1=O [Design D9.23, i*aiPAVpPl] (cyclo([dL][dI][dNMeA][dI]PA[dV][dP]P)) | 0.141 | 
5 | CC(C)C[C@@H]1C(=O)N[C@H](C(C)C)C(=O)N(C)[C@@H](C(C)C)C(=O)N2CCC[C@H]2C(=O)N2CCC[C@@H]2C(=O)N[C@@H](C)C(=O)N(C)[C@@H](Cc2ccccc2)C(=O)N(C)[C@H](CC(C)C)C(=O)N[C@H](C)C(=O)N1C [Design D9.17, pA*F*la*lv*VP] (cyclo(A[NMeF][dNMeL][dA][dNMeL][dV][NMeV]P[dP])) | 1.74 | 
6 | CC[C@@H](C)[C@H]1NC(=O)[C@H](Cc2ccccc2)NC(=O)[C@@H](CC(C)C)N(C)C(=O)[C@@H]2CCCN2C(=O)[C@@H](C(C)C)NC(=O)[C@@H](C)N(C)C(=O)[C@H]2CCCN2C(=O)[C@@H](CC(C)C)NC(=O)[C@H](CC(C)C)NC(=O)[C@@H]2CCCN2C1=O [Design D10.30, P*lFiPLlp*av] (cyclo(F[dI]PL[dL][dP][dNMeA][dV]P[dNMeL])) | 4.78 | 
7 | CC(C)[C@H]1NC(=O)[C@@H]2CCCN2C(=O)[C@@H](C)NC(=O)[C@@H](Cc2ccccc2)NC(=O)[C@@H]2CCCN2C(=O)[C@H](Cc2ccccc2)NC1=O [Design D6.7, faPvFP] (cyclo(FP[dF][dA]P[dV])) | 0.424 | 
8 | CC(C)C[C@@H]1NC(=O)[C@@H](Cc2ccccc2)NC(=O)[C@@H](CC(C)C)N(C)C(=O)[C@@H]2CCCN2C(=O)[C@H](C)NC(=O)[C@@H](CC(C)C)N(C)C(=O)[C@@H]2CCCN2C(=O)[C@H](CC(C)C)N(C)C(=O)[C@H](CC(C)C)N(C)C(=O)[C@H](C(C)C)NC1=O [Design D10.20, P*lAP*lfLV*L*L] (cyclo(AP[dNMeL][dF]LV[NMeL][NMeL]P[dNMeL])) | 2.59 | 
9 | CC[C@@H](C)[C@H]1NC(=O)[C@@H](Cc2ccccc2)NC(=O)[C@H](CC(C)C)NC(=O)[C@@H](C)N(C)C(=O)[C@@H](CC(C)C)NC(=O)[C@H](CC(C)C)NC(=O)[C@H]2CCCN2C(=O)[C@@H]2CCCN2C(=O)[C@@H](C)NC(=O)[C@H]2CCCN2C1=O [Design D10.37, l*aLfipaPpL] (cyclo(L[dF][dI][dP][dA]P[dP]L[dL][dNMeA])) | 0.654 | 
10 | CC(C)C[C@@H]1NC(=O)[C@H]2CCCN2C(=O)[C@@H](CC(C)C)NC(=O)[C@@H](CC(C)C)NC(=O)[C@@H](CC(C)C)N(C)C(=O)[C@H](C(C)C)NC(=O)[C@@H](C)NC(=O)[C@@H](C)N(C)C(=O)[C@@H]2CCCN2C1=O [Design D9.16, P*aaV*lllpL] (cyclo(LP[dNMeA][dA]V[dNMeL][dL][dL][dP])) |  | significant permeability
11 | CCCC[C@@H]1NC(=O)[C@H]2CCCN2C(=O)[C@H](C(C)C)NC(=O)[C@@H](CC(C)C)N(C)C(=O)[C@H](Cc2ccccc2)NC(=O)[C@H](CC(C)C)NC(=O)[C@@H](CC(C)C)N(C)C(=O)[C@@H]2CCCN2C(=O)[C@@H](CC(C)C)NC1=O [Design D9.40, pMlP*lLF*lV] (cyclo(F[dNMeL]V[dP][Nle][dL]P[dNMeL]L)) | 0.238 | 
12 | C[C@H]1NC(=O)[C@@H](Cc2ccccc2)NC(=O)[C@H](Cc2ccccc2)N(C)C(=O)[C@H](Cc2ccccc2)N(C)C(=O)[C@@H](Cc2ccccc2)NC(=O)[C@H]2CCCN2C(=O)CNC(=O)[C@@H](C)NC(=O)[C@@H]2CCCN2C(=O)[C@@H](Cc2ccccc2)NC1=O [Design D10.62, aGpf*F*FfafP] (cyclo(G[dP][dF][NMeF][NMeF][dF][dA][dF]P[dA])) | 4.23 | 
13 | CC(C)C[C@@H]1NC(=O)[C@H](CC(C)C)N(C)C(=O)[C@H]2CCCN2C(=O)[C@@H](C)NC(=O)[C@@H](C)N(C)C(=O)[C@@H](C(C)C)NC(=O)[C@@H](CC(C)C)N(C)C(=O)[C@@H]2CCCN2C1=O [Design D8.30, ap*LLP*lv*a] (cyclo(LP[dNMeL][dV][dNMeA][dA][dP][NMeL])) | 4.32 | 
14 | CC(C)C[C@@H]1NC(=O)[C@H]2CCCN2C(=O)[C@H](CC(C)C)N(C)C(=O)[C@@H](C(C)C)NC(=O)[C@H](CC(C)C)NC(=O)[C@H]2CCCN2C(=O)[C@H](CC(C)C)N(C)C(=O)[C@@H](C(C)C)NC1=O [Design D8.21, v*LpLv*LpL] (cyclo(L[dV][NMeL][dP]L[dV][NMeL][dP])) |  | significant permeability
15 | CC[C@@H](C)[C@H]1NC(=O)[C@@H]2CCCN2C(=O)[C@@H]([C@H](C)CC)NC(=O)[C@@H](C)N(C)C(=O)[C@H](CC(C)C)NC(=O)[C@@H](Cc2ccccc2)NC(=O)[C@H](CC(C)C)N(C)C(=O)[C@H]2CCCN2C(=O)[C@@H](CC(C)C)NC(=O)[C@H](CC(C)C)NC(=O)[C@H]2CCCN2C1=O [Design D11.1, ipLlp*LfL*aiP] (cyclo(L[dL][dP][NMeL][dF]L[dNMeA][dI]P[dI][dP])) | 3.48 | 
16 | CC(C)C[C@@H]1NC(=O)[C@@H]2CCCN2C(=O)[C@H]2CCCN2C(=O)[C@H](CC(C)C)NC(=O)[C@H](C)N(C)C(=O)[C@H]2CCCN2C(=O)[C@@H](CC(C)C)NC1=O [Design D7.6, lp*ALpPL] (cyclo(L[dL][dP][NMeA]L[dP]P)) | 3.62 | 
17 | CC(C)C[C@@H]1NC(=O)[C@@H](CC(C)C)NC(=O)[C@H]2CCCN2C(=O)[C@H](CC(C)C)NC(=O)[C@@H](CC(C)C)NC(=O)[C@H](CC(C)C)NC(=O)[C@@H]2CCCN2C(=O)[C@@H](C)NC1=O [Design D8.1, lLplLaPL] (cyclo(L[dA]PL[dL]L[dP][dL])) | 6.94 | most permeable 8 residue design in PAMPA
18 | CC[C@H](C)[C@@H]1NC(=O)CNC(=O)[C@@H]2CCCN2C(=O)[C@H]2CCCN2C(=O)[C@H]([C@@H](C)CC)NC(=O)[C@@H](C)N(C)C(=O)[C@@H]2CCCN2C(=O)[C@H](C(C)C)NC(=O)[C@@H](CC(C)C)NC1=O [Design D9.33, pPGIlVP*aI] (cyclo(GI[dL]VP[dNMeA]I[dP]P)) | 0.317 | 
19 | CC(C)[C@@H]1NC(=O)[C@H]2CCCN2C(=O)[C@@H](C(C)C)NC(=O)[C@@H]2CCCN2C(=O)[C@H](Cc2ccccc2)NC(=O)[C@H](Cc2ccccc2)NC(=O)[C@H]2CCCN2C(=O)[C@@H](C(C)C)NC(=O)[C@@H]2CCCN2C(=O)[C@H](C(C)C)NC1=O [Design D10.27, PvpVVPvpFF] (cyclo(FFP[dV][dP]VVP[dV][dP])) | 0.49 | 
20 | CC(C)[C@H]1C(=O)N[C@H](Cc2ccccc2)C(=O)N2CCC[C@H]2C(=O)N[C@H](Cc2ccccc2)C(=O)N2CCC[C@H]2C(=O)N2CCC[C@H]2C(=O)N1C [Design D6.6, PP*VfPf] (cyclo([NMeV][dF]P[dF]PP)) | 3.64 | 
21 | CC[C@@H](C)[C@H]1NC(=O)[C@@H](CC(C)C)N(C)C(=O)[C@@H]2CCCN2C(=O)[C@@H]([C@H](C)CC)NC(=O)[C@@H](CC(C)C)NC(=O)[C@@H](CC(C)C)N(C)C(=O)[C@@H]2CCCN2C(=O)[C@@H](C(C)C)NC1=O [Design D8.8, P*lliP*liv] (cyclo(P[dNMeL][dI][dV]P[dNMeL][dL][dI])) | 5.9 | 
22 | CC[C@H](C)[C@@H]1NC(=O)[C@@H](CC(C)C)NC(=O)[C@@H](C)N(C)C(=O)[C@H](Cc2ccccc2)NC(=O)[C@@H](CC(C)C)NC(=O)[C@@H](C)N(C)C(=O)[C@@H]2CCCN2C(=O)[C@H](C(C)C)NC(=O)[C@H]2CCCN2C(=O)[C@@H]2CCCN2C1=O [Design D10.31, F*alIPpVP*al] (cyclo(F[dNMeA][dL]IP[dP]VP[dNMeA][dL])) | 1.9 | 
23 | CC(C)C[C@@H]1NC(=O)[C@@H](CC(C)C)NC(=O)[C@@H]2CCCN2C(=O)[C@@H](CC(C)C)NC(=O)[C@H](C)N(C)C(=O)[C@H](C)NC(=O)[C@H](CC(C)C)N(C)C(=O)[C@@H]2CCCN2C(=O)[C@H](CC(C)C)NC(=O)[C@H](CC(C)C)N(C)C1=O [Design D10.16, lL*LLP*LA*AlP] (cyclo(A[NMeA][dL]P[dL]L[NMeL]LP[NMeL])) | 2.27 | 
24 | CC(C)C[C@@H]1NC(=O)[C@@H](CC(C)C)N(C)C(=O)[C@@H]2CCCN2C(=O)[C@H](CC(C)C)N(C)C(=O)[C@@H](C)NC(=O)[C@@H](CC(C)C)N(C)C(=O)[C@@H]2CCCN2C(=O)CN(C)C(=O)[C@H](CC(C)C)N(C)C(=O)[C@H](Cc2ccccc2)NC1=O [Design D10.57, *L*GP*la*LP*lLF] (cyclo(F[NMeL][Sar]P[dNMeL][dA][NMeL]P[dNMeL]L)) | 3.05 | 
25 | CC(C)C[C@H]1C(=O)N2CCC[C@@H]2C(=O)N[C@@H](Cc2ccccc2)C(=O)N2CCC[C@H]2C(=O)N[C@H](C(C)C)C(=O)N[C@H](Cc2ccccc2)C(=O)N1C (single isomer, unassigned) [Design D6.9.p2, vf*LpFP] | 6.77 | 
